From patent US6867043B2, “Peptides that deliver antisense oligonucleotides which downregulate protein expression in cells” (The Trustees of Columbia University in the City of New York, priority 2001, dated 2005)
pKd: −log10 of the molar value. Oligonucleotides are written 5' to 3', each unit as a sugar letter and its base; * is a phosphorothioate linkage, no mark a phosphodiester; rarer units and linkages stand in square brackets, end groups in braces. Plain capitals give the bases only. {Fluorescein} = fluorescein label; d = 2'-deoxy (DNA)

Columns and labels:
PKC-α [1] = test: Western blot of PKC-α protein expression in T24 cells; format: cell-based; conditions: for inhibition of PKC-α protein expression (antisense activity), in words: short-peptide experiments, 2 μM oligonucleotide, 25 μM chloroquine preincubation
Description: (§1) Experiments using the protamine-NLS peptides to deliver antisense oligonucleotides were performed in T24 bladder carcinoma and PC-3 prostate carcinoma cells. In addition to the 20-mer ISIS 3521, the 18-mer phosphorothioate oligonucleotide G3139 (SEQ ID NO:6) was also employed. G3139 is targeted to the first six codons of the human bcl-2 open reading frame. […] The expression of PKC-α protein was assayed by Western blotting after 24 hr, while the expression of bcl-2 protein in PC3 cells was assayed similarly after a further 48 hr incubation in RPMI media containing 10% FBS. In both cases, the incubations were performed in the continuous presence of the peptide/oligonucleotide complexes.
Treatment of cells with oligonucleotide-peptide complexes: Cells were grown in six-well plates until 65-75% confluent. […] The solution was mixed gently and incubated at room temperature for 30 min to allow oligonucleotide-peptide complexes to form. […] The cells were then incubated at 37° C. for 24 hr (for PKC-α) or re-fed with complete McCoy's 5A media containing 10% FBS and allowed to incubate for an additional 72 hr (for bcl-2) before cell lysis and extract preparation.
(§2) Western Blotting: Cells were treated with peptide-oligodeoxynucleotide complexes, scraped, washed with cold PBS and then extracted in […] of lysis buffer [50 mM Tris-HCl, pH 7.5; 1% NP-40; 0.25% sodium deoxycholate; 150 mM NaCl; 1 mM EGTA; 50 μg/mL Pefablock™ SC; 15 μg/mL aprotinin, leupeptin, chymostatin, and pepstatin A; 1 mM Na3VO4; 1 mM NaF] at 4° C. for 1 hr. Cell debris was removed by centrifugation at 14,000×g for 20 min at 4° C. Protein concentrations were determined using the Bio-Rad protein assay system (Bio-Rad Laboratories, Richmond, Calif.).
Aliquots of cell extracts containing 20-30 μg of protein were resolved by 10% or 12% SDS-polyacrylamide gel electrophoresis and transferred to Hybond ECL filter paper (Amersham, Arlington Heights, Ill.). […]

PKC-α [2] = test: Western blot of PKC-α protein expression in PC3 cells; format: cell-based; conditions: for inhibition of PKC-α protein expression, in words: long-peptide experiments, ISIS 3521 0.25-2 μM, ISIS 4559 2 μM, 25 μM chloroquine pre-treatment required; for inhibition of PKC-α protein expression (antisense activity), in words: short-peptide experiments, 2 μM oligonucleotide, 25 μM chloroquine preincubation
Description: as §1
Treatment of cells with oligonucleotide-peptide complexes: Cells were grown in six-well plates until 65-75% confluent. The peptides, at the stated peptide/oligonucleotide molar ratios, were diluted in 500 μL of Opti-MEM medium and oligonucleotide was then added up to the required concentration of 2 μM. The solution was mixed gently and incubated at room temperature for 30 min to allow oligonucleotide-peptide complexes to form. […] The cells were then incubated at 37° C. for 24 hr (for PKC-α) or re-fed with complete McCoy's 5A media containing 10% FBS and allowed to incubate for an additional 72 hr (for bcl-2) before cell lysis and extract preparation.
as §2
Aliquots of cell extracts containing 20-30 μg of protein were resolved by 10% or 12% SDS-polyacrylamide gel electrophoresis and transferred to Hybond ECL filter paper (Amersham, Arlington Heights, Ill.). Filters were incubated at room temperature for 1-2 h in Blotto A [5% non-fat milk powder in TBS-T:10 mM Tris-HCl, pH 8.0, 150 mM NaCl, 0.05% Tween 20 (for PKC-α) and 5% BSA in PBS, 0.5% Tween (for Bcl-2)] and then probed overnight at 4° C. with 1:1000 dilution of anti-PKC- or 1:500 dilution of anti-Bcl-2 in Blotto A. After washing in TBS-T or PBS-T buffer (3×7 min, room temperature), filters were incubated for 1 h at room temperature in 5% milk/TBS-T or 5% milk/PBS-T buffer containing a 1:3,000 dilution of peroxidase-conjugated anti-mouse secondary antibody. […]

[3] = test system: T24 bladder carcinoma cells; test: MTT cellular viability assay of paclitaxel-treated T24 cells; format: cell-based; conditions: 3 days paclitaxel, 24 hours treatment, 8 μM peptide / 2 μM oligonucleotide, 25 μM chloroquine pretreatment
Description: As a measure of the effectiveness of the peptide-delivered antisense inhibition of PKC-α the cells treated with peptide were exposed to paclitaxel, a compound commonly used in cancer therapy to inhibit microtubule depolymerization.
Cellular viability assay: Cells were seeded in 96-well tissue culture plates and treated the next day with oligonucleotide-peptide complexes for 24 hr. […] The cells were incubated for 4 hr at 37° C., 5% CO2 with 0.5 mg/mL MTT in complete media. An equal volume of solubilization solution (10% SDS in 0.01 M HCl) was then added and allowed to incubate overnight at 37° C. After the formazan crystals were dissolved, the plates were read on a Dynatech MR600 Microplate Reader at 540 nm.
Statistical analysis of the results was performed using the Analysis ToolPack provided by Microsoft Excel. A Student's two-sample t-test, assuming unequal variances, was used to determine the equality of the means of two samples. The confidence level was 0.05.

bcl-2 = test: Western blot of bcl-2 protein expression in PC3 cells; format: cell-based, human; conditions: PC-3 cells; short-peptide experiments; 25 μM chloroquine pretreatment
Description: as §1
Treatment of cells with oligonucleotide-peptide complexes: Cells were grown in six-well plates until 65-75% confluent. […]
as §2, with “Cell debris was removed by centrifugation at 14,000×g for 20 min at 4° C.” left out, “Calif.). […]” for “Calif.).”

T24 cells = test: Fluorescence confocal microscopy of oligonucleotide delivery to the cell nucleus; format: cell-based; conditions: 2 μM 5′-fluorescein-labeled ISIS 3521; 8 μM and 6 μM peptide; T24 cells pretreated with 25 μM chloroquine; 24 hr
Description: The ability of the protamine-NLS peptides to deliver the oligonucleotides into the cell nucleus was evaluated by fluorescence confocal microscopy.
Confocal microscopy: Cells were seeded in glass bottom microwells (MatTec Corp., Mass.), and treated with peptide-oligodeoxynucleotide complexes at 37° C. for 24 hr. Cellular internalization was examined using an LSM 410 laser scanning confocal microscope (Zeiss, Thornwood, N.Y.) equipped with a krypton/argon laser and attached to a Zeiss Axiovert 100 TV microscope. The 515-540 nm bandpass for fluorescein was used. Z-series were taken of a 1 to 2 micron optical section at 2 μm intervals. For measurements, a maximum projection of all sections was employed.

ISIS 3521 = test: Fluorescence titration: quenching of peptide Trp fluorescence by bound oligonucleotide; format: binding
Description: The interaction of ISIS 3521 (SEQ ID NO:5), a 20mer phosphorothioate antisense oligonucleotide, with the short and long protamine-NLS peptides (s-protamine-NLS and l-protamine-NLS) was evaluated by fluorescence spectroscopy. The peptide contains a single Trp residue (position 8 of the short peptide; SEQ ID NO:2) which can be excited at 290 nm and emits fluorescent light at 330 nm. The ability of a bound oligonucleotide to quench this fluorescent emission constitutes a relatively sensitive probe for the monitoring of molecular interactions.
The titration of a 5 μM solution of s-protamine-NLS (SEQ ID NO:2) with increasing concentrations of ISIS 3521 (SEQ ID NO:5), both in PBS and in Opti-MEM (without serum, to mimic transfection conditions), led to dramatic fluorescence quenching. At least two oligonucleotide binding modes can be easily discerned: At low oligonucleotide concentration (relative to s-protamine-NLS peptide) a plot of the decrease in fluorescence (due to quenching) vs. oligonucleotide concentration fits an equation of the Michaelis-Menton type. […] However, as oligonucleotide concentration is increased, Trp fluorescence continues to decline, but a similar plot no longer fits a Michaelis-Menton-type equation, and the binding becomes increasingly complex. Trp fluorescence is finally completely quenched (i.e., 100%) at a 4:1 molar ratio of peptide/oligonucleotide. […]

In the case of “5′-GTTCTCGCTGGTGAGTTTCA-3′ (antisense dG*dT*dT*dC*dT*dC*dG*dC*dT*dG*dG*dT*dG*dA*dG*dT*dT*dT*dC*dA) [ISIS 3521]”, the “inhibition of PKC-α protein expression (antisense activity), in words” value (PKC-α [1]) was “completely ineffective”, the “inhibition of PKC-α protein expression, in words” value (PKC-α [2]) was “did not have antisense effects” and the “inhibition of PKC-α protein expression (antisense activity), in words” value (PKC-α [2]) was “completely ineffective”. For the same compound, the “cellular viability (reduction in cell proliferation by MTT assay), in words” value [3] was “no effect on cell viability”.
CCN(CC)CCCC(C)Nc1ccnc2cc(Cl)ccc12 (stereo not drawn) [chloroquine] was tested, and the “inhibition of PKC-α protein expression (antisense activity), in words” value (PKC-α [1]) was “did not downregulate PKC-α expression”, the “inhibition of PKC-α protein expression (antisense activity), in words” value (PKC-α [2]) was “did not downregulate PKC-α expression” and the “inhibition of Bcl-2 expression (antisense activity), in words” value (bcl-2) was “totally inactive”.
With “s-protamine-scrambled NLS: control peptide: short protamine fragment with scrambled NLS sequence (RRRRRRWGRRRRRRPKGKRKV; CONTROL PEPTIDE)” the “delivery of fluoresceinated oligonucleotide to the cell nucleus” value (“delivery” below) (T24 cells) was “also promotes the delivery of the oligonucleotide to the nucleus”.
With “RRRRRRWGRRRRRRPKKKRKV [s-protamine-NLS, peptide with shorter protamine fragment and SV40 large T-antigen nuclear localization signal]” the pKd (ISIS 3521; 5 μM s-protamine-NLS titrated with ISIS 3521, low oligonucleotide concentration, R^2=0.99, read-out: Kd from Lineweaver-Burke (double reciprocal) plot of fluorescence quenching) was 7.10, the Trp fluorescence quenched (ISIS 3521; at a 4:1 molar ratio of peptide/oligonucleotide) was 100% and the “delivery” value (T24 cells) was “effectively delivered fluoresceinated oligonucleotide to the cell nucleus”. For the same compound, the “cellular viability (reduction in cell proliferation by MTT assay), in words” value [3] was “no effect on cell viability”.
“l-protamine-NLS: long Arg-rich protamine fragment peptide with C-terminal SV40 large T-antigen nuclear localization signal (RRRRSRRRRRRFGRRRRRRVWRRRRPKKKRKV; NOVEL PEPTIDE - SV40/PROTAMINE SOURCE)” was tested, and the “inhibition of PKC-α protein expression, in words” value (PKC-α [1]; long-peptide experiments, ISIS 3521 0.25, 0.5, 1 μM, ISIS 4559 2 μM, chloroquine not required) was “no effect” and the “inhibition of PKC-α protein expression, in words” value (PKC-α [2]) was “no effect”.
For “5′-fluorescein-labeled ISIS 3521: ISIS 3521 labeled with fluorescein at the 5′ end, for confocal microscopy (antisense {Fluorescein}-dG*dT*dT*dC*dT*dC*dG*dC*dT*dG*dG*dT*dG*dA*dG*dT*dT*dT*dC*dA)”, the “delivery” value (T24 cells) was “internalized poorly”.
